Measured values taken from patent US11965034B2, “Antifibrotic activity of CD47 blockade in the liver” (The Board of Trustees of the Leland Stanford Junior …, priority 2017, dated 2024).

Tests used:
[1] = system: c-Jun-induced migration of bone marrow-derived stromal cells; assay: Transwell migration assay of c-Jun-induced bone marrow-derived stromal cells (in vitro inhibitory screen); type: cell-based, mouse; conditions: bone marrow-derived stromal cells from c-Jun-inducible mice, dox induced
From the text: Functional evaluation of signaling pathways mediating the fibrogenic response. We next wished to assess the functional relevance of the signaling pathway rewiring induced by transcriptional activation of c-Jun. To enable systematic pharmacological interrogation we sought to develop a c-Jun-dependent in vitro assay. We assessed two cell biological parameters in cultured bone marrow-derived stromal cells from c-Jun-inducible mice. First, we assessed cell growth and observed a shortening of the cell doubling time from about […] in control to about 2 days in c-Jun-induced fibroblasts (FIG. 6A). Second, we measured cell migration of bone marrow-derived stromal cells in a transwell migration assay as a functional readout of the c-Jun induction and observed a 100-fold increase in migration at 2 hours and a 1000-fold increase at 24 hours in c-Jun induced cells versus uninduced cells (FIG. 6B).
Given its much greater dynamic range, we then tested a series of small molecule inhibitors in the transwell migration assay. […]
Transwell migration and proliferation assays. For transwell migration assays Costar transwell chambers were used according to the manufacturer's directions and transmigrated adherent cells were fixed and stained and counted by microscopy after periods of 2 hrs and 24 hrs. […]

[2] = system: c-Jun induced mice (bone marrow and skin fibrosis); assay: Systemic c-Jun induced bone marrow and skin fibrosis in vivo; parameters: species or system mouse; conditions: systemic c-Jun induction, drug i.p.
From the text: Blockade of the VEGF and PI3K pathways reverse marrow and skin fibrosis in vivo. Encouraged by these findings, we sought to evaluate the efficacy of blocking the PI3K-AKT pathway in c-Jun mediated fibrosis in vivo. Wortmannin, a potent PI3K inhibitor, was systemically administered to mice for 14 days that were induced to express c-Jun two days prior to drug. […] Any effects on gastroesophageal or bladder were not assessed as the fibrosis in these organs takes longer to develop. Both Rosa26-rtTA control mice were treated with dox and c-Jun-inducible mice were treated with PBS. No fibrosis developed in either control condition in lung or other organs over the same time span. Thus, the PI3K and VEGFR pathways are critical mediators of c-Jun-induced fibrosis in mice and may be also involved in the development of human fibrosing conditions.
Tissue processing. Animals were sacrificed at times indicated based on an APLAC-approved protocol that includes assessment of morbidity by >10% loss of weight, scruffy appearance and lethargy. […] Images were analyzed in Adobe Photoshop (Adobe Systems, San Jose, CA). […] Flow cytometry was performed on a FACS Aria cytometer (BD Biosciences, San Jose, CA), at least 10,000 events were acquired, and data were analyzed using FlowJo software. […]

With `CCN(CC)CCCCNc1ncc2cc(-c3cc(OC)cc(OC)c3)c(NC(=O)NC(C)(C)C)nc2n1` [PD173074] the c-Jun-induced migration [1] was “abolish”, the bone marrow fibrosis [2] was “significantly decreased” and the “skin fibrosis (dermal skin thickening and collagen deposition)” value [2] was “but not skin fibrosis”.
